{
  "source": "patent US9839668B2",
  "about": "“Compositions and methods for the treatment of diseases related to the renin-angiotensin-system” (ATTOQUANT DIAGNOSTICS GMBH, priority 2013, dated 2017)",
  "key": {"[1]": {"test_system": "Balb/c mice", "experiment": "Plasma Ang 1-8 and Ang 1-7 levels in Balb/c mice after intra-peritoneal injection, LC-MS/MS", "type": "in vivo, mouse", "experimental": "Mice were sacrificed 4 h following drug administration and blood was collected in the presence of protease inhibitors suitable for stabilization of angiotensin peptides in the collected sample. Following centrifugation of blood at 2500 g for 5 min at 4° C., Ang 1-8 and Ang 1-7 was quantified in the plasma samples by LC-MS/MS analysis."}, "[2]": {"test_system": "Ang 1-8 and Ang 1-7 levels in human whole blood", "experiment": "Ang 1-8 and Ang 1-7 levels in human heparinized whole blood plus recombinant human renin, ex vivo, LC-MS/MS", "type": "biochemical", "settings": "human whole blood + 100 pg/ml renin, 60 min 37° C., ACE inhibitors 10 μM; for Ang 1-7 level: vehicle control 27 pg/ml; for Ang 1-8 level: vehicle control 686 pg/ml", "experimental": "Blood was collected from a human healthy volunteer using a standard heparin blood collection tube. Recombinant human renin was added to whole blood at a concentration of 100 pg/ml in order to simulate RAS hyper-activation. Drugs and combinations were added to different plasma samples at indicated final concentrations and combinations (FIG. 2) using appropriate solvent controls for each compound or combination tested. Following an incubation period of 60 min at 37° C., samples were stabilized by addition of protease inhibitors and Ang 1-8 and Ang 1-7 levels were measured by mass spectrometry.\nAng 1-8 and Ang 1-7 levels were measured following 1 h of incubating the compounds with human heparinized whole blood (plus recombinant human renin) at 37° C."}, "[3]": {"test_system": "human APA in plasma", "experiment": "Ex vivo APA activity and Ang 1-8 levels in human heparin plasma plus recombinant human renin", "type": "biochemical", "experimental": "(§1) APA activity was determined by measuring Ang 2-8 formation using LC-MS/MS. The Ang 2-8 formation rate is given in pg Ang 2-8/ml per minute. […] Following the incubation period, samples were cooled on ice, stabilized by the addition of protease inhibitors and analyzed for Ang 1-8 levels by LC-MS/MS."}, "[4]": {"target": "APN (EC 3.4.11.2) (Homo sapiens, UniProt P15144)", "sequence (P15144 whole entry, species assumed)": "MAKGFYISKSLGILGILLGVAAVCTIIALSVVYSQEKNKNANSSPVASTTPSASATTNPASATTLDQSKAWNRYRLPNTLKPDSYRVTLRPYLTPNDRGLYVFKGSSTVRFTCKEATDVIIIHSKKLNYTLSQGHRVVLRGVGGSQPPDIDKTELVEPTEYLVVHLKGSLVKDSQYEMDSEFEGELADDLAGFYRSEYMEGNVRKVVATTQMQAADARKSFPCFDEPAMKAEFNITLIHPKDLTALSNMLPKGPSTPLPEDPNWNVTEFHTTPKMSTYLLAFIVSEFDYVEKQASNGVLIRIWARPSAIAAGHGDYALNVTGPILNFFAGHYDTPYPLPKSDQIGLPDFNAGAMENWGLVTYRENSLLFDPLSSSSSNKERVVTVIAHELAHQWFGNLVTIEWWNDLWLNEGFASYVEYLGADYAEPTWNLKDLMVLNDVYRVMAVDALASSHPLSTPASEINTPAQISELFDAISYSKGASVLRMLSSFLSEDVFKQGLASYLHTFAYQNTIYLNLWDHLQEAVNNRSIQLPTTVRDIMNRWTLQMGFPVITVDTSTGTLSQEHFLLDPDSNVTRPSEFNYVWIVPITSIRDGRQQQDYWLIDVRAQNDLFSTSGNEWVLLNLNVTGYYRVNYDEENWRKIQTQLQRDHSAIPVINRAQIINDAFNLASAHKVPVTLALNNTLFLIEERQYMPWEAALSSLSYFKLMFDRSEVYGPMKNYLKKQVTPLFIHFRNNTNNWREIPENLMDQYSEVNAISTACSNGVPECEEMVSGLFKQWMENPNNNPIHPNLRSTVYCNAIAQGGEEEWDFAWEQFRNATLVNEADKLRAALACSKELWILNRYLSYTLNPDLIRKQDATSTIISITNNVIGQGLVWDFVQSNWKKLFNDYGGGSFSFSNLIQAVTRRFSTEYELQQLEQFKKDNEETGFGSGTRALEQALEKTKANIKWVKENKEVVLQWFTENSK", "settings": "APN vs APA; cited from earlier work"}, "[5]": {"target": "T1, APA (recombinant human ENPEP) (Homo sapiens, UniProt Q07075)", "T1 construct": "purchased R&D 2499-ZN", "T1 sequence (Q07075 whole entry)": "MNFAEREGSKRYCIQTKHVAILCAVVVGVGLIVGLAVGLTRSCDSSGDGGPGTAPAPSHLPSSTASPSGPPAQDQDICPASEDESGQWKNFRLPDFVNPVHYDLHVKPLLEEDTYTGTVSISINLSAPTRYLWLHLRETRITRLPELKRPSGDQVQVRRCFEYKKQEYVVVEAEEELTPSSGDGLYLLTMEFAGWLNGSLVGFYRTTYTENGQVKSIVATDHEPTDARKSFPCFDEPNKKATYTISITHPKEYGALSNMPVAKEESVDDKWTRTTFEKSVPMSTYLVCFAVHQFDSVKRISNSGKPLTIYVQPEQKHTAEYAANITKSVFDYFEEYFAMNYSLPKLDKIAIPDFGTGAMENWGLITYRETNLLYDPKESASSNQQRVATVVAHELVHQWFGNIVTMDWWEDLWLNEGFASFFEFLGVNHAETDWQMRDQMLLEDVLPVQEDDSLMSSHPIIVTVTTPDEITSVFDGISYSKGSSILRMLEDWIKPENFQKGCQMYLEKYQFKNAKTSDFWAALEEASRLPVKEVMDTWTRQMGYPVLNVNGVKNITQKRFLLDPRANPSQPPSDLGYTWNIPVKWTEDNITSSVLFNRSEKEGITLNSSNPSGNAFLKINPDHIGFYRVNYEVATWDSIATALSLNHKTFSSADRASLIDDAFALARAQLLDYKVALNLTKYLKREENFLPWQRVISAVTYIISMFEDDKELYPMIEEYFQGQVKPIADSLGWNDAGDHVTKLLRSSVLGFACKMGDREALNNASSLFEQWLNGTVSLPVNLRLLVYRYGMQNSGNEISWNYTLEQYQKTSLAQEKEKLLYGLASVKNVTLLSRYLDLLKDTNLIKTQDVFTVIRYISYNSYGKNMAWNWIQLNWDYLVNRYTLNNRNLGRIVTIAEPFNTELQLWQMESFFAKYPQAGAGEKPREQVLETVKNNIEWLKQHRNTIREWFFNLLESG", "experiment": "In vitro APA activity assay: conversion of Ang 1-8 to Ang 2-8, LC-MS/MS", "type": "biochemical", "settings": "0.1 μM Amastatin, 1 μg/ml APA", "experimental": "as §1"}, "[6]": {"test_system": "SHR rats", "experiment": "Systolic blood pressure in male SHR rats, tail-cuff method", "type": "in vivo, rat", "settings": "day 7, mean +/-SEM", "experimental": "Twenty male 16-week-old SHR rats were used for investigation of short-term effects of the new drug combination on systolic blood pressure. Prior to starting the treatment procedure, rats were conditioned to the experimental procedure by daily blood pressure measurements using the tail-cuff method for 1 week. […] Daily blood pressure measurements were performed 4 h following drug administration and continued throughout the whole treatment period. Blood-pressure data were evaluated by calculating the relative change in systolic blood pressure compared to the vehicle group at day 7 of drug administration. Statistical comparison between the groups was conducted by using Student's T-test.\nMean body weight and baseline systolic blood pressure of SHR rats were determined at the beginning of the treatment period resulting in a mean body weight of 283 g and mean systolic blood pressure of 196 mmHg. Following 7 days of daily oral administration of different compounds and compound combinations, systolic blood pressure was monitored by tail-cuff method and the relative changes compared to vehicle treated control rats (V) mean values are shown with corresponding standard errors of the mean (+/−SEM) (FIG. 1)."}, "[7]": {"test_system": "rats", "settings": "administered to the periphery by intravenous injection in rats; cited from earlier work"}, "[8]": {"test_system": "APA over APN", "settings": "cited from earlier work"}, "[9]": {"target": "T2, APA in the brain (Rattus norvegicus, UniProt P50123)", "T2 construct": "host or cells: brain, in vivo", "T2 sequence (P50123 whole entry)": "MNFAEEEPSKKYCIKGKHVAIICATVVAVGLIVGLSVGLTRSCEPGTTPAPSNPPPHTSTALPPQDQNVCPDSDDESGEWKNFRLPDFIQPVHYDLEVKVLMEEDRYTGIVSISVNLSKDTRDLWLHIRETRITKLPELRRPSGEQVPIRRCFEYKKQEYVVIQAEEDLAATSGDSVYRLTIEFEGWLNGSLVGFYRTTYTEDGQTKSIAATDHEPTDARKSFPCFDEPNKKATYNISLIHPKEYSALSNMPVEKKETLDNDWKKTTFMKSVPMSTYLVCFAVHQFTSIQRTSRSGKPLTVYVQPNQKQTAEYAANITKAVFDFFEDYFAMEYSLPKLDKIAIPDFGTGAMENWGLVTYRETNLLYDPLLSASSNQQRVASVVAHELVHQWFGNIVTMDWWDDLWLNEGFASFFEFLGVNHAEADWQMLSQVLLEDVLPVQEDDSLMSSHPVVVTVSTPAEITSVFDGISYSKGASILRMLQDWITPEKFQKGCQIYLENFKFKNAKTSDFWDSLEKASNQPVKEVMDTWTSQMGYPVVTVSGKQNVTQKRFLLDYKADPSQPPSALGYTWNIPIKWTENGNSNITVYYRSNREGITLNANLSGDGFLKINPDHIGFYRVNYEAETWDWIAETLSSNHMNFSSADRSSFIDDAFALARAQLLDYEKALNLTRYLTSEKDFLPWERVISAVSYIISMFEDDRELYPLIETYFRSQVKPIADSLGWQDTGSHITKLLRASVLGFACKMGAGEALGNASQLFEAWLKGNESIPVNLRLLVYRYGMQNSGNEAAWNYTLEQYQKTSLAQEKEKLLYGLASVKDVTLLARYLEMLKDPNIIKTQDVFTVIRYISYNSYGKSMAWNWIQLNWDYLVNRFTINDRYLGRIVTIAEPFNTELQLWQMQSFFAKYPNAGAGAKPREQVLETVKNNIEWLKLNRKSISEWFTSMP", "settings": "via inhibition of APA by active metabolite EC-33 in the brain; cited from earlier work"}, "[10]": {"test_system": "SHR rat", "settings": "one SHR rat, i.v. 50 μmol/kg Lisinopril then 20 μmol/kg Amastatin, blood 10 min after each infusion", "quoted_text": "A male SHR rat was anesthetized by isoflurane followed by preparation of the jugular vein and insertion of an infusion catheter. At the beginning of the experiment (t=0 min) 200 μl of phosphate buffered saline was infused into the jugular vein within a period of 15 seconds. 10 min following saline infusion, 500 μl heparin blood was collected from the tail vein and placed on ice. Another 10 min later (t=20 min) a dose of 50 μmol/kg Lisinopril was in fused in a volume of 200 μl phosphate buffered saline, followed by another tail vein heparin blood collection of 500 μl heparin blood 10 min after Lisinopril infusion. […] Following centrifugation of blood at 2500 g for 5 min at 4° C., Ang 1-8 and Ang 1-7 was quantified in the plasma samples by LC-MS/MS analysis."}},
  "data": [
    {"smiles": "C[C@H](CS)C(=O)N1CCC[C@H]1C(=O)O", "note": "[Captopril]", "values": [
      {"measurement": "increase of Ang 1-7 following ACE inhibitor treatment alone", "setting": "[1]; 4 h after i.p. injection", "result": "not observed"},
      {"measurement": "Ang 1-7 level", "setting": "[2]", "result": 100, "unit": "pg/mL"},
      {"measurement": "Ang 1-8 level", "setting": "[2]", "result": 29, "unit": "pg/mL"}
    ]},
    {"smiles": "CC(C)C[C@@H](N)[C@H](O)C(=O)N[C@H](C(=O)N[C@H](C(=O)N[C@@H](CC(=O)O)C(=O)O)C(C)C)C(C)C", "note": "[Amastatin]", "values": [
      {"measurement": "effect on the activity of human APA in plasma", "setting": "[3]; 0.1 μM Amastatin, 1 μg/ml APA", "result": "did not affect the activity of human APA in plasma"},
      {"measurement": "Ang 1-8 level in human heparin plasma", "setting": "[3]; 0.1 μM Amastatin, no added APA, 100 pg/ml renin, 60 min 37° C., untreated control 412 pg/ml", "result": 752, "unit": "pg/mL"},
      {"measurement": "reduction of Ang 1-8 levels by 1 μg/ml APA in the presence of 0.1 μM Amastatin", "setting": "[3]; human heparin plasma, 266 pg/ml without Amastatin", "result": 323, "unit": "pg/mL"},
      {"measurement": "change in circulating Ang 1-8", "setting": "[1]; 40 mg/kg i.p., 4 h following drug administration", "result": "decrease"},
      {"measurement": "plasma Ang 1-7 level", "setting": "[1]; 4 h after i.p. injection, 40 mg/kg each, baseline below LLOQ", "result": "< 4", "unit": "pg/mL"},
      {"measurement": "more potent in inhibiting APN compared to APA", "setting": "[4]", "result": 40, "unit": "fold"},
      {"measurement": "effect on APA activity in vitro", "setting": "[5]", "result": "did not affect APA activity in vitro"},
      {"measurement": "Ang 2-8 formation rate", "setting": "[5]; 100 ng/ml Ang 1-8, 37° C. 10 min, 971 without Amastatin", "result": 1077, "unit": "pg Ang 2-8/ml per minute"},
      {"measurement": "Ang 1-7 level", "setting": "[2]", "result": 15, "unit": "pg/mL"},
      {"measurement": "Ang 1-8 level", "setting": "[2]", "result": 1016, "unit": "pg/mL"},
      {"measurement": "increase in mean systolic blood pressure compared to vehicle treated animals", "setting": "[6]; 40 mg/kg daily for 7 days, not significant (p=0.60)", "result": "5.8+/−7.0 mmHg"}
    ]},
    {"smiles": "N[C@H](CS)CCS(=O)(=O)O", "note": "[EC-33]", "values": [
      {"measurement": "effect on blood pressure", "setting": "[7]", "result": "no effect on blood pressure"},
      {"measurement": "selectivity for APA over APN", "setting": "[8]", "result": "at least 100 fold"}
    ]},
    {"smiles": "N[C@@H](CCS(=O)(=O)O)CSSC[C@@H](N)CCS(=O)(=O)O", "note": "[RB150]", "values": [
      {"measurement": "effect on blood pressure", "setting": "[9]", "result": "effective in lowering blood pressure"}
    ]},
    {"smiles": "NCCCC[C@H](N[C@@H](CCc1ccccc1)C(=O)O)C(=O)N1CCC[C@H]1C(=O)O", "note": "[Lisinopril]", "values": [
      {"measurement": "equilibrium Ang 1-8 level", "setting": "[10]; after saline 42.7 pg/ml", "result": 21.5, "unit": "pg/mL"},
      {"measurement": "equilibrium Ang 1-7 level", "setting": "[10]; after saline below 3.4 pg/ml", "result": 12.1, "unit": "pg/mL"},
      {"measurement": "increase of Ang 1-7 following ACE inhibitor treatment alone", "setting": "[1]; 4 h after i.p. injection", "result": "not observed"},
      {"measurement": "Ang 1-7 level", "setting": "[2]", "result": 153, "unit": "pg/mL"},
      {"measurement": "Ang 1-8 level", "setting": "[2]", "result": 33, "unit": "pg/mL"},
      {"measurement": "decrease in systolic blood pressure compared to vehicle treated animals", "setting": "[6]; 40 mg/kg of each drug daily for 7 days, measured 4 h after dosing, 5 animals per group", "result": "18.6+/−3.9 mmHg"}
    ]}
  ]
}
